Test results as given in patent US20190183948A1, “USE OF BCL-XL INHIBITOR AND ONCOLYTIC VIRUS IN PREPARATION OF ANTITUMOR DRUG” (GUANGZHOU VIROTECH PHARMACEUTICAL CO., LTD., priority 2016, published 2019).
pKi: −log10 of the molar value.

Columns and labels:
Bcl-B = molecular target: T1, Bcl-B (Homo sapiens, UniProt Q9HD36); conditions: cited from earlier work
T1 sequence (Q9HD36 1-204): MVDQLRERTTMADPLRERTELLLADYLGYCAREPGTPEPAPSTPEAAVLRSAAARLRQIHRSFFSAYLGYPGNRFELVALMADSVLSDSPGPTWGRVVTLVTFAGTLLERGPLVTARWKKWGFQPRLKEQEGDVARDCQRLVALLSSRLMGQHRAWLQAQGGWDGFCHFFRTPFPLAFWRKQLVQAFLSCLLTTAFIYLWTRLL

Bfl-1 = molecular target: T2, Bfl-1 (Homo sapiens, UniProt Q16548); conditions: cited from earlier work
T2 sequence (Q16548 1-175): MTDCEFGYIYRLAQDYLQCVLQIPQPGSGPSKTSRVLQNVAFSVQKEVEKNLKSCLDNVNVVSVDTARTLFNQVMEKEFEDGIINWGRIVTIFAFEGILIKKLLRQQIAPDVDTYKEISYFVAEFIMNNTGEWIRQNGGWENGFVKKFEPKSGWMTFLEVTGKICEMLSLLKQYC

Mcl-1 = Mcl-1 (Homo sapiens, UniProt Q07820); conditions: cited from earlier work
Chain of Mcl-1 (Q07820 whole entry, species assumed): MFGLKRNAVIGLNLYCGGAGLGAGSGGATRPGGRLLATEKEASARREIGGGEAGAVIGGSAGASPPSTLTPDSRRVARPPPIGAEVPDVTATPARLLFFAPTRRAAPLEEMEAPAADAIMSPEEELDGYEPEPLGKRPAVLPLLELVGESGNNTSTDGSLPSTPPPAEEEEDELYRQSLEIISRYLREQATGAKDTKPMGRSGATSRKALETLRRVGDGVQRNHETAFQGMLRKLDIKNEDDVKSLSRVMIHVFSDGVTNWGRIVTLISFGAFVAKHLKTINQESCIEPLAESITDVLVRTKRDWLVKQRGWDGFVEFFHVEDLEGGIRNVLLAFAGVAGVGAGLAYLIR

A1 = molecular target: T3, A1 (Homo sapiens, UniProt Q16548); conditions: cited from earlier work
T3 sequence (Q16548 1-175): T2 sequence (Q16548 1-175)

[1] = test system: LoVo transplantable tumor; experiment: Transplantable tumor growth in nude mice, LoVo (Example 4); format: in vivo, BALB/c nude mice; conditions: LoVo s.c. in nude mice; ABT-263 i.p. 10 mg/kg/d, M1 tail vein 2×10^6 PFU/time, three injections
Description: (§1) This experiment was designed in a randomized, single-blind way. 5×10^6 Hep3B or LoVo cells were subcutaneously injected into dorsa of the 4-week-aged BALB/c nude mice.
(§2) The weight, length and width of the tumor were measured every two days, and the volume of the tumor was calculated according to the formula: (length×width 2)/2. After the volume of the tumor was measured, One-way ANOVA statistics was carried out, wherein *** represented p<0.001 and **represented p<0.01.

[2] = test system: Hep3B transplantable tumor; experiment: Transplantable tumor growth in nude mice, Hep3B (Example 4); format: in vivo, BALB/c nude mice; conditions: Hep3B s.c. in nude mice; ABT-263 i.p. 10 mg/kg/d, M1 tail vein 2×10^6 PFU/time, three injections
Description: as §1, §2

Bcl-w = molecular target: T4, Bcl-w (Homo sapiens, UniProt Q92843); conditions: cited from earlier work
T4 sequence (Q92843 1-193): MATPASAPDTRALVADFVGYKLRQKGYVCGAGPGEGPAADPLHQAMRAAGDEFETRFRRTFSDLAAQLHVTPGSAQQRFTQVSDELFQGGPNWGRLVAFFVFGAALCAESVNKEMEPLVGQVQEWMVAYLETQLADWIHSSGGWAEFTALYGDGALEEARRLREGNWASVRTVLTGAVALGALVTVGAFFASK

[3] = test system: human liver cancer cell Hep3B; experiment: MTT survival rate (Example 2), Hep3B; format: cell-based; conditions: 48 hours, inhibitor 100 nM, M1 MOI=0.001
Description: a) Inoculation of cells and administration treatment: The cells in the exponential growth phase were selected and added into a DMEM complete culture medium (containing 10% fetal bovine serum and 1% penicillin/streptomycin (Life Technologies)) to prepare a cell suspension. The cells were inoculated into a 96-well culture plate at a density of 4×10^3/well. After 12 hours, the cells were completely adherent to the wall. […] The dose was used as follows: M1 virus that infected the cells; different dose gradient set for M1 virus. b) Reaction of MTT (3-(4,5-dimethylthiazol-2-yl)-2,5-diphenyltetrazolium bromide or methyl thiazolyl tetrazolium) with succinate dehydrogenase in the cells: 48 hours after culture, 20 μl of MIT (5 mg/ml) was added into each well, and was incubated for further 4 hours. After incubation, granular blue and purple formazan crystals formed in the living cells were observed by microscopic examination. c) Dissolution of formazan particles formed in the cells was accomplished as follows: the supernatant was carefully sucked off, and 100 μl/well of DMSO was added to dissolve the formed crystals, and was shaken in a microoscillator for 5 minutes. Then, the optical density (OD value) of each well was detected in an enzyme linked detector at a wavelength of 570 nm. The experiments were repeated for 3 times for each group. […]

In the case of `CN(C)CC[C@H](CSc1ccccc1)Nc1ccc(S(=O)(=O)NC(=O)c2ccc(N3CCN(Cc4ccccc4-c4ccc(Cl)cc4)CC3)cc2)cc1[N+](=O)[O-]` [ABT-737], the “inhibitory effect on Bcl-B” value (Bcl-B) is listed as “no inhibitory effect”, the “inhibitory effect on Bfl-1” value (Bfl-1) is listed as “no inhibitory effect” and the “binding / inhibitory effect on Mcl-1” value (Mcl-1) is listed as “no inhibitory effect”.
For `CC1(C)CCC(CN2CCN(c3ccc(C(=O)NS(=O)(=O)c4ccc(NCC5CCOCC5)c([N+](=O)[O-])c4)c(Oc4cnc5[nH]ccc5c4)c3)CC2)=C(c2ccc(Cl)cc2)C1` [ABT-199], the “binding / inhibitory effect on Mcl-1” value (Mcl-1) is given as “no activity”.
In the case of `CC1(C)CCC(c2ccc(Cl)cc2)=C(CN2CCN(c3ccc(C(=O)NS(=O)(=O)c4ccc(N[C@H](CCN5CCOCC5)CSc5ccccc5)c(S(=O)(=O)C(F)(F)F)c4)cc3)CC2)C1` [ABT-263], the “binding to A1” value (A1) is listed as “binds weakly”, the “tumor volume vs control group” value [1] is listed as “slight shrinkage of the tumor volume” and the “tumor volume vs control group” value [2] is listed as “slight shrinkage of the tumor volume”. The “binding / inhibitory effect on Mcl-1” value (Mcl-1) was “binds weakly”, the pKi (Bcl-w) was at least 9.00 and the “survival rate of the tumor cells” value [3] was 88.8%.
